We go through 2 molecules from publication PMC8341910, “Structural and biophysical insights into the mode of covalent binding of rationally designed potent BMX inhibitors” (RSC Chemical Biology, 2020).

Several values for one entry are separate records, joined by “and”; a condition that tells them apart may be missing. Identical values can stand only once.

One assay deals with TEC (Homo sapiens, UniProt P42680). Put plainly: KINOMEscan binding. To be noted: read-out: % Ctrl TEC.
A further assay addresses PDPK1 (Homo sapiens, UniProt O15530). Put plainly: KINOMEscan binding. To be noted: read-out: % Ctrl PDPK1.
The target of the next assay is FGR (Homo sapiens, UniProt P09769). Put plainly: KINOMEscan binding. Particulars: read-out: % Ctrl FGR.
A further assay deals with BTK (Homo sapiens, UniProt Q06187). Put plainly: KINOMEscan binding. Particulars: read-out: % Ctrl BTK.
Another assay has as its target AKT1 (Homo sapiens, UniProt P31749). Put plainly: KINOMEscan binding. Particulars: read-out: % Ctrl AKT1.
For assay [1], the target named is NanoLuc®-BMX fusion vector in HEK293 cells (Homo sapiens, UniProt P51813). Put plainly: NanoBRET TE intracellular kinase assay. To be noted: HEK293 transiently transfected with BMX; 1 h; duplicate, mean ± S.D.; read-out: intracellular target engagement IC50. Type of assay: cell-based. On the technique in general: In BRET a luciferase serves as donor, and the signal depends on an acceptor being close.
Procedure: Target Engagement Intracellular Kinase Assay:
In-cell target engagement was performed at the Reaction Biology Corporation (USA) using the NanoBRETTM technology. Very briefly, HEK296 cells, purchased from ATCC, were
with the reference compound Dasatinib, for 1 hour of incubation. Compounds were diluted 10 times with 3-fold dilution, starting at 1 µM. Curve fits were performed only when % NanoBret
determined using the GraphPad Prism 8 (USA).

The target in another assay is HCK (Homo sapiens, UniProt P08631). Put plainly: KINOMEscan binding. To be noted: read-out: % Ctrl HCK.
A further assay addresses BLK (Homo sapiens, UniProt P51451). Put plainly: KINOMEscan binding. To be noted: read-out: % Ctrl BLK.
A further assay concerns the target PIK3CD (Homo sapiens, UniProt O00329). Put plainly: KINOMEscan binding. Particulars: read-out: % Ctrl PIK3CD.
For assay [2], the target named is JAK2(JH1domain-catalytic) (Homo sapiens, UniProt O60674). Put plainly: KINOMEscan binding. Particulars: read-out: % Ctrl JAK2(JH1domain-catalytic).
Procedure: (§1) Therefore, we included the whole TEC, EGFR and JAK family in our screening, and the Src family and Lkb1, which also have a cysteine within the same sequence alignment. We also included kinases involved in upstream (Src, FAK, PI3K, mTOR, PDK1) and downstream (Akt, PAK1, TAM) regulation of BMX signaling pathway and non-receptor tyrosine protein kinase Abl.
(§2) Kinome selectivity was performed with DiscoverX KINOMEscan™ technology.
Another assay deals with LCK (Homo sapiens, UniProt P06239). Put plainly: KINOMEscan binding. To be noted: read-out: % Ctrl LCK.
A further assay has as its target ERBB2 (Homo sapiens, UniProt P04626). Put plainly: KINOMEscan binding. To be noted: read-out: % Ctrl ERBB2.
A further assay addresses ERBB3 (Homo sapiens, UniProt P21860). Put plainly: KINOMEscan binding. To be noted: read-out: % Ctrl ERBB3.
In another assay the target is LYN (Homo sapiens, UniProt P07948). Put plainly: KINOMEscan binding. To be noted: read-out: % Ctrl LYN.
Chain of LYN (P07948 whole entry): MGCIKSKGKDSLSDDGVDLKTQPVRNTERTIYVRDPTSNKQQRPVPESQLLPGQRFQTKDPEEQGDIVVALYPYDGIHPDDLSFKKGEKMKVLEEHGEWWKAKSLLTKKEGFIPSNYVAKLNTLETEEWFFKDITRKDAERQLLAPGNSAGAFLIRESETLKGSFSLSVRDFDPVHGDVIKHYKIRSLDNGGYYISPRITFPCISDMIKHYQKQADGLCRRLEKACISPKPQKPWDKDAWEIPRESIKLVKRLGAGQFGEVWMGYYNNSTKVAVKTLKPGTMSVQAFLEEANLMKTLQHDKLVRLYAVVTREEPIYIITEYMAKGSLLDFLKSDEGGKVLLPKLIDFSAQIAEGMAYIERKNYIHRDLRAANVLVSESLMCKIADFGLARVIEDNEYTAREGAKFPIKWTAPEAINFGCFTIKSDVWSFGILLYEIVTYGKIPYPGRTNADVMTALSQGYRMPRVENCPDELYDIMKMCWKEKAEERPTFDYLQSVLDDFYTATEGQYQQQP
The target of a further assay is PAK1 (Homo sapiens, UniProt Q13153). Put plainly: KINOMEscan binding. Particulars: read-out: % Ctrl PAK1.
The target in assay [3] is JAK1(JH1domain-catalytic) (Homo sapiens, UniProt P23458). Put plainly: KINOMEscan binding. To be noted: read-out: % Ctrl JAK1(JH1domain-catalytic).
Procedure: (§3) Therefore, we included the whole TEC, EGFR and JAK family in our screening, and the Src family and Lkb1, which also have a cysteine within the same sequence alignment.
as §2
For a further assay, the target named is EGFR (Homo sapiens, UniProt P00533). Put plainly: KINOMEscan binding. Particulars: read-out: % Ctrl EGFR.
Chain of EGFR (P00533 25-1210): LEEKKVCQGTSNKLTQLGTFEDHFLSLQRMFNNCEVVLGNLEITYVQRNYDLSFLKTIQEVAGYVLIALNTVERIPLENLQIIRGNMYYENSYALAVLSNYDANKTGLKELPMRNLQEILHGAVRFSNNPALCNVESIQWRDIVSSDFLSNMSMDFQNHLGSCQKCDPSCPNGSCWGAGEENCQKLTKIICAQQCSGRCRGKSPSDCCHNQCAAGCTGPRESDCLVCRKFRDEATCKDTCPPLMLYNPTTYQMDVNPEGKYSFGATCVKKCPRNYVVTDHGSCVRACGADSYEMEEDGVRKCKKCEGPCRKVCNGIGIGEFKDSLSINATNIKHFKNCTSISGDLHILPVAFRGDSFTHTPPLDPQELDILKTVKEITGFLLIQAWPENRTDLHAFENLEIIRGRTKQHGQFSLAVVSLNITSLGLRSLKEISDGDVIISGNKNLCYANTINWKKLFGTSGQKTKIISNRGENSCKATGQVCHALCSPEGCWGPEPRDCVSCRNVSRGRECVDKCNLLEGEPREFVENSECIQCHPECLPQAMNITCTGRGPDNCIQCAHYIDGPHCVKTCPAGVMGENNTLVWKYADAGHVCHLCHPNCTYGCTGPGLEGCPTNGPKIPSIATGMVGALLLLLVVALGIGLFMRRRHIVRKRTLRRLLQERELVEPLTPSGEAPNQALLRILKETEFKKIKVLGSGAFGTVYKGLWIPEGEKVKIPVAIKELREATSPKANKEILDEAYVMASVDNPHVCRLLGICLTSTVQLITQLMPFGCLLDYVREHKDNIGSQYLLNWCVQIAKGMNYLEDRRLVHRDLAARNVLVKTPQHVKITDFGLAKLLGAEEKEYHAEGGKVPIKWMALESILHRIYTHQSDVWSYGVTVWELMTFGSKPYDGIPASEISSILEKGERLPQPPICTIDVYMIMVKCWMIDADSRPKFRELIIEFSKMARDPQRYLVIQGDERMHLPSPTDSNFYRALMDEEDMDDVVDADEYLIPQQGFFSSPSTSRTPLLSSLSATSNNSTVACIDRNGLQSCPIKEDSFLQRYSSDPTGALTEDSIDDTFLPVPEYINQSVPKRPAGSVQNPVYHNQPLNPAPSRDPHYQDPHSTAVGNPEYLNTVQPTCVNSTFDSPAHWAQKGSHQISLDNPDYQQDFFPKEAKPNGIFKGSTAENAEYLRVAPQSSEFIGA
Assay [4] concerns the target JAK3(JH1domain-catalytic) (Homo sapiens, UniProt P52333). Put plainly: KINOMEscan binding. To be noted: read-out: % Ctrl JAK3(JH1domain-catalytic).
Procedure: as §1, §2
The next assay addresses FYN (Homo sapiens, UniProt P06241). Put plainly: KINOMEscan binding. To be noted: read-out: % Ctrl FYN.
In a further assay the target is PIK3CB (Homo sapiens, UniProt P42338). Put plainly: KINOMEscan binding. Particulars: read-out: % Ctrl PIK3CB.
The next assay concerns the target ABL1-phosphorylated (Homo sapiens, UniProt P00519). Put plainly: KINOMEscan binding. Particulars: read-out: % Ctrl ABL1-phosphorylated.
A further assay has as its target T1, BMX (Homo sapiens, UniProt P51813).
T1 sequence (P51813 1-675): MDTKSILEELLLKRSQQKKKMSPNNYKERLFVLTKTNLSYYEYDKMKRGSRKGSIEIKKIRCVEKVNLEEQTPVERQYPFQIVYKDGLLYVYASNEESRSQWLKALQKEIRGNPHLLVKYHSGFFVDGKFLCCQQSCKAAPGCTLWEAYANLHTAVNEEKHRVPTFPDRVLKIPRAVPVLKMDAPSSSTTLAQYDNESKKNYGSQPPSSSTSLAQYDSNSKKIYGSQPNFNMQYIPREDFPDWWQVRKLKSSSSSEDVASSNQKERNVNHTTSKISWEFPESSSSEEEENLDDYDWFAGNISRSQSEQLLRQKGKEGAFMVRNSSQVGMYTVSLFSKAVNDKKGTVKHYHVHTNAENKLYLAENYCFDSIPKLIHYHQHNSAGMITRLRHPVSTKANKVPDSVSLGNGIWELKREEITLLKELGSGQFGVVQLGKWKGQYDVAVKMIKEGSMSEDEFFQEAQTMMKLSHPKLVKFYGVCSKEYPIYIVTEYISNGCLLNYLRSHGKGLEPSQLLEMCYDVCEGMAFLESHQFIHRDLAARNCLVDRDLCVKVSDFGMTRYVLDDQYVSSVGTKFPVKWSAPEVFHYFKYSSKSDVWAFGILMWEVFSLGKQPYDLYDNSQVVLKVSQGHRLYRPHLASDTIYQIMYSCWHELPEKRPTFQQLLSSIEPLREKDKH
Put plainly: KINOMEscan binding. To be noted: read-out: % Ctrl BMX.

Another assay concerns SK-N-MC. Put plainly: Multi cell line growth assay (CellTiter-Glo, 72 h). Type of assay: cell-based, human. To be noted: Homo sapiens, SK-N-MC, Brain, ND = no growth inhibition observed.
The subject of a further assay is LNCaP. Put plainly: Multi cell line growth assay (CellTiter-Glo, 72 h). Type of assay: cell-based, human. Particulars: Homo sapiens, LNCaP, Prostate, ND = no growth inhibition observed within the concentrations tested. In general terms: In ATP-based viability assays light output follows the ATP content of the culture.
The next assay deals with PC3. Put plainly: Multi cell line growth assay (CellTiter-Glo, 72 h). The format is cell-based, human. Particulars: Homo sapiens, PC-3, Prostate, ND = no growth inhibition observed.
A further assay relates to RS4(11). Put plainly: Multi cell line growth assay (CellTiter-Glo, 72 h). The format is cell-based, human. To be noted: Homo sapiens, RS4-11, Lung (so in the source), ND = no growth inhibition observed.
For the next assay, the system named is DAUDI. Put plainly: Multi cell line growth assay (CellTiter-Glo, 72 h). Type of assay: cell-based, human. Particulars: Homo sapiens, Daudi, Lymphoid, ND = no growth inhibition observed.

Chain of ERBB2 (P04626 23-1255): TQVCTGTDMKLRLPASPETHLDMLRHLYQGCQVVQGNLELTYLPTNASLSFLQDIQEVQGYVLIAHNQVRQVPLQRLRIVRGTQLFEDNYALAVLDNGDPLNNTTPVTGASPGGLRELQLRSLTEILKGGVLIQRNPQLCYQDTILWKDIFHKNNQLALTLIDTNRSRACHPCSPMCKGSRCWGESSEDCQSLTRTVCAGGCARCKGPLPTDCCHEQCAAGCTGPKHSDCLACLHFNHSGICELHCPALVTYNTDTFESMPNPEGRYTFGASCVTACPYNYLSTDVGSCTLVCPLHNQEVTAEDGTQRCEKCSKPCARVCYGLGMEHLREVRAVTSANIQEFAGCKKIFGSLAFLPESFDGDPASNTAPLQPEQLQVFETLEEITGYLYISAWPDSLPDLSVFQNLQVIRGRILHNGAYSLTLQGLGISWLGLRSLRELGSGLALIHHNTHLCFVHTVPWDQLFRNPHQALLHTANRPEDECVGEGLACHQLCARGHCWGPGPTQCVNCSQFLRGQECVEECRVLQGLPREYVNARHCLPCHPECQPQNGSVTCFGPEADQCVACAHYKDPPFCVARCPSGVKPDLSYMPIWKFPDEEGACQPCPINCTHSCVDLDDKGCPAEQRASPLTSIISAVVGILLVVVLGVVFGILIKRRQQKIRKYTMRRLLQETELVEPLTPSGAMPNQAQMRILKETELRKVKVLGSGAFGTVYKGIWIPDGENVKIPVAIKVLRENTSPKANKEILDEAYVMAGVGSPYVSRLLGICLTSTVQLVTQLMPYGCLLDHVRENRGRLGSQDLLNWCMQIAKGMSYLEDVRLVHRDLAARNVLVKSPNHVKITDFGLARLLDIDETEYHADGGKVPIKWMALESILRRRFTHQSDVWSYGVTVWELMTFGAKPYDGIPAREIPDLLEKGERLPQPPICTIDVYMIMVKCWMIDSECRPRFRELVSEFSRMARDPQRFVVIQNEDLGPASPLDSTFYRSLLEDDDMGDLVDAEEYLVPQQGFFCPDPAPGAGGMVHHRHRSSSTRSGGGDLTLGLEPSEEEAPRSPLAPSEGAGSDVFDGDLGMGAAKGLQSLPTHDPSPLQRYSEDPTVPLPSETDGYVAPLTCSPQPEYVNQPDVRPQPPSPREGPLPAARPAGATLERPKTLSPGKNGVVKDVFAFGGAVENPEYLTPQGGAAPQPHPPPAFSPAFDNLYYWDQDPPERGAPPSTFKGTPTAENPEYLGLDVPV
Chain of AKT1 (P31749 whole entry, the tested form may be a part): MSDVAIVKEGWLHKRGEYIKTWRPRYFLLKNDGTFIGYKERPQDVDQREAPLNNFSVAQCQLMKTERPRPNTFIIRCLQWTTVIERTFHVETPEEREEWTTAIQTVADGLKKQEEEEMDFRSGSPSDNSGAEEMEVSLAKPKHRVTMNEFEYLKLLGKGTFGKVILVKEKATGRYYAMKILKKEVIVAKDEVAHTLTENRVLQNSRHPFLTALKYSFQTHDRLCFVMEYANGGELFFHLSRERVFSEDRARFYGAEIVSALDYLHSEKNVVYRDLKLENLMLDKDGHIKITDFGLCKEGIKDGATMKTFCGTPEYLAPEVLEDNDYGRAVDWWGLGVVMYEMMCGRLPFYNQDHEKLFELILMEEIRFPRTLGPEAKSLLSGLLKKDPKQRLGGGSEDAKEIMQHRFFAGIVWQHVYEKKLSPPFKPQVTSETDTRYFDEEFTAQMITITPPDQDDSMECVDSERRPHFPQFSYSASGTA
Chain of FYN (P06241 whole entry): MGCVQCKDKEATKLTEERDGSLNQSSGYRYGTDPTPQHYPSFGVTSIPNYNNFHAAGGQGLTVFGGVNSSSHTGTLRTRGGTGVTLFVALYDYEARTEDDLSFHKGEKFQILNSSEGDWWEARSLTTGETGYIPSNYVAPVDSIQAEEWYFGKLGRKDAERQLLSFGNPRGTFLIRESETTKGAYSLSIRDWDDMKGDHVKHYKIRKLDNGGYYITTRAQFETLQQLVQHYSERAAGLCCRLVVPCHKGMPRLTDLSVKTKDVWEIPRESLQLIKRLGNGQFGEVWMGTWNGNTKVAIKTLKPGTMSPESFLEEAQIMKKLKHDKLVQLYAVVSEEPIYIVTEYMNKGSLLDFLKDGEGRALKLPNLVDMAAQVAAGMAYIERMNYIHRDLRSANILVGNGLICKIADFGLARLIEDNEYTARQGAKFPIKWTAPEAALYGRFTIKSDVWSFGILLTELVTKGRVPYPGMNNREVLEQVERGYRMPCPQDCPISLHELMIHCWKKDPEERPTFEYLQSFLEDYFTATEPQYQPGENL
Chain of TEC (P42680 whole entry): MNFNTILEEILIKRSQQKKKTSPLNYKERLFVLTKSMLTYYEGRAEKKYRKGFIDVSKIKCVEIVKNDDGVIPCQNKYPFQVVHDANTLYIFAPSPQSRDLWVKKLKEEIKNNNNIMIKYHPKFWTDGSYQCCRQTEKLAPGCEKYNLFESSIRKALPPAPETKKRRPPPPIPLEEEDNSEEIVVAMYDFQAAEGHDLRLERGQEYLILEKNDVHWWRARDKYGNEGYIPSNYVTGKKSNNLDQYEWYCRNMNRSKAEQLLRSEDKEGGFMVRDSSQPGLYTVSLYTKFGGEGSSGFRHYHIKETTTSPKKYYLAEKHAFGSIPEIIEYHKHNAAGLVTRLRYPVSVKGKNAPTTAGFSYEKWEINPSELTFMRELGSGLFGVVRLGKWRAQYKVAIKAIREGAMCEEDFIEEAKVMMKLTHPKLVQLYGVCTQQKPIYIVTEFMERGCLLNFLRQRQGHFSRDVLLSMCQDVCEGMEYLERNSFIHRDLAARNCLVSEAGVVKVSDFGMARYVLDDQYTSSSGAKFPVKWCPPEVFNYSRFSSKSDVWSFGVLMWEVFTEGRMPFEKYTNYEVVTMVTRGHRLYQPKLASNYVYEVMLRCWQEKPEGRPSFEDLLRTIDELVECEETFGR
Chain of JAK3(JH1domain-catalytic) (P52333 814-1124 limits assumed): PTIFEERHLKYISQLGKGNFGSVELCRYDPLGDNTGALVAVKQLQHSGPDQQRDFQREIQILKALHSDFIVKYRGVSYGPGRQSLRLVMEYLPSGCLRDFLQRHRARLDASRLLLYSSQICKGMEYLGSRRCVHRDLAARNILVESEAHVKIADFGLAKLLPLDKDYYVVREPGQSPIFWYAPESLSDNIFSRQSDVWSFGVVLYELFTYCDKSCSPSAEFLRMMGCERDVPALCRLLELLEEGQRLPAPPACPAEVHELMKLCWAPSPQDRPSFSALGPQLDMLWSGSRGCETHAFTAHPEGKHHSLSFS
Procedure for ABL1-phosphorylated: as §1, §2
Procedure for AKT1: as §1, §2
Procedure for BLK: as §3, §2
Procedure for BTK: as §3, §2
Procedure for EGFR: as §3, §2
Procedure for ERBB2: as §3, §2
Procedure for ERBB3: as §3, §2
Procedure for FGR: as §3, §2
Procedure for FYN: as §1, §2
Procedure for HCK: as §3, §2
Procedure for LCK: as §3, §2
Procedure for LYN: as §1, §2
Procedure for PAK1: as §1, §2
Procedure for PDPK1: as §1, §2
Procedure for PIK3CB: as §1, §2
Procedure for PIK3CD: as §1, §2
Procedure for TEC: as §3, §2

On to `C=CC(=O)Nc1cc(C)cc(-n2c(=O)ccc3cnc4cc(-c5ccc(NS(C)(=O)=O)cc5)ccc4c32)c1` [JS25], for which the remaining binding at 1 µM was determined as 0.4% on TEC; 92% at PDPK1; 93% on FGR; 0% on BTK; 100% on AKT1; 95% at HCK. The remaining binding at 1 µM came out at 16% at BLK; 100% at PIK3CD; 81% in [2]; 80% on LCK; 89% on ERBB2; 91% at ERBB3. Moreover, the remaining binding at 1 µM was found to be 100% at LYN; 100% on PAK1; 93% in assay [3]; 87% at EGFR; 21% in assay [4]; 99% on FYN. In addition, the remaining binding at 1 µM is 89% at PIK3CB, 100% on ABL1-phosphorylated and 1.3% at BMX. For the same molecule, the IC50 in [1] was 0.0448 µM and 0.045 µM.

For `C=CC(=O)Nc1cc(-n2c(=O)ccc3cnc4cc(-c5ccc(NS(C)(=O)=O)cc5)ccc4c32)ccc1C` [JS24], the GI50 is 8.53 ± 0.44 µM with SK-N-MC; 4.4 µM in the assay on LNCaP; 4.8 µM with PC3; 2.09 µM in the assay with RS4(11); 1.27 ± 0.05 µM in the assay with DAUDI.

Usually IC50 stands for the point on the concentration scale where inhibition reaches its midpoint. A word on the GI50: it is the concentration giving 50% growth inhibition.
